Measured values: US11957687B2 (REGENERON PHARMACEUTICALS, INC., priority 2019, dated 2024)

Target: HSD17B13 (Homo sapiens (Human), UniProt Q7Z5P4)
Assay: HSD17B13 enzymatic inhibition assay (150 nM or 50 nM HSD17B13)
Type: biochemical
Details: 50 nM HSD17B13; read-out: Inhibition of 50 nM of HSD17B13 IC50

Sequence of HSD17B13 (Q7Z5P4 other isoform, or with tags, fused parts or gaps): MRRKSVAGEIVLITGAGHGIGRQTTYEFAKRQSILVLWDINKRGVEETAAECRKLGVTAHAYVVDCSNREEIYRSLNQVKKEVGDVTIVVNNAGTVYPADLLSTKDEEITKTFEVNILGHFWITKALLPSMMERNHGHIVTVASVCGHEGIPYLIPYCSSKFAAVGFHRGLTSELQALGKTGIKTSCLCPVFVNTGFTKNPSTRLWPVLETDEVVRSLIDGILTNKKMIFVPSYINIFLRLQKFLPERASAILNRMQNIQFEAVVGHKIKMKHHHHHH

Structure (SMILES) | IC50 [nM]
O=C(NC1CCc2c(O)cccc21)c1ccc(C(F)(F)F)[nH]c1=O (stereo not drawn) [Compound 136, N-(4-hydroxy-2,3-dihydro-1H-inden-1-yl)-2-oxo-6-(trifluoromethyl)-1,2-dihydropyridine-3-carboxamide] | 1130
O=C(NC1c2ccccc2COc2ccccc21)c1ccc(C(F)(F)F)[nH]c1=O (stereo not drawn) [Compound 137, N-(6,11-dihydrodibenzo[b,e]oxepin-11-yl)-2-oxo-6-(trifluoromethyl)-1,2-dihydropyridine-3-carboxamide] | 4190
CCc1ccc2c(c1)Oc1cccc(CC)c1C2NC(=O)c1ccc(C(F)(F)F)[nH]c1=O (stereo not drawn) [Compound 142, N-(1,6-diethyl-9H-xanthen-9-yl)-2-oxo-6-(trifluoromethyl)-1,2-dihydropyridine-3-carboxamide] | 540
Cc1ccc2c(c1)Oc1cccc(C)c1C2NC(=O)c1ccc(C)[nH]c1=O (stereo not drawn) [Compound 147, N-(1,6-dimethyl-9H-xanthen-9-yl)-6-methyl-2-oxo-1,2-dihydropyridine-3-carboxamide] | > 10000
Cc1ccc2c(c1)C(NC(=O)c1ccc(C(F)(F)F)[nH]c1=O)c1ccccc1O2 (stereo not drawn) [Compound 148, N-(2-methyl-9H-xanthen-9-yl)-2-oxo-6-(trifluoromethyl)-1,2-dihydropyridine-3-carboxamide] | 670
Cc1ccc2c(c1)Oc1cc(C)ccc1C2NC(=O)c1ccc(C)[nH]c1=O [Compound 149, N-(3,6-dimethyl-9H-xanthen-9-yl)-6-methyl-2-oxo-1,2-dihydropyridine-3-carboxamide] | > 10000
O=C(NC1c2ccccc2Oc2c(Cl)cccc21)c1ccc(C(F)(F)F)[nH]c1=O (stereo not drawn) [Compound 152, N-(4-chloro-9H-xanthen-9-yl)-2-oxo-6-(trifluoromethyl)-1,2-dihydropyridine-3-carboxamide] | 1030
O=C(NC1c2cc(Cl)ccc2Oc2ccc(Cl)cc21)c1ccc(C(F)(F)F)[nH]c1=O [Compound 153, N-(2,7-dichloro-9H-xanthen-9-yl)-2-oxo-6-(trifluoromethyl)-1,2-dihydropyridine-3-carboxamide] | 1790
N#Cc1ccc2c(c1)C(NC(=O)c1ccc(C(F)(F)F)[nH]c1=O)c1ccccc1O2 (stereo not drawn) [Compound 154, N-(2-cyano-9H-xanthen-9-yl)-2-oxo-6-(trifluoromethyl)-1,2-dihydropyridine-3-carboxamide] | 650
Cc1cccc2c1C(NC(=O)c1ccc(C(F)(F)F)[nH]c1=O)c1ccccc1O2 (stereo not drawn) [Compound 157, N-(1-methyl-9H-xanthen-9-yl)-2-oxo-6-(trifluoromethyl)-1,2-dihydropyridine-3-carboxamide] | 850
O=C(NC1c2ccccc2Oc2cccc(Cl)c21)c1ccc(C(F)(F)F)[nH]c1=O (stereo not drawn) [Compound 159, N-(1-chloro-9H-xanthen-9-yl)-2-oxo-6-(trifluoromethyl)-1,2-dihydropyridine-3-carboxamide] | 600
CCc1cccc2c1C(NC(=O)c1ccc(C(F)(F)F)[nH]c1=O)c1ccccc1O2 (stereo not drawn) [Compound 163, N-(1-ethyl-9H-xanthen-9-yl)-2-oxo-6-(trifluoromethyl)-1,2-dihydropyridine-3-carboxamide] | 840
Cc1ccc2c(c1)Oc1cccc(C)c1C2NC(=O)c1cc(C)c(C(F)(F)F)[nH]c1=O (stereo not drawn) [Compound 164, N-(1,6-dimethyl-9H-xanthen-9-yl)-5-methyl-2-oxo-6-(trifluoromethyl)-1,2-dihydropyridine-3-carboxamide] | 900
CCc1cc(C(=O)NC2c3ccc(C)cc3Oc3cccc(C)c32)c(=O)[nH]c1C(F)(F)F (stereo not drawn) [Compound 167, N-(1,6-dimethyl-9H-xanthen-9-yl)-5-ethyl-2-oxo-6-(trifluoromethyl)-1,2-dihydropyridine-3-carboxamide] | 820
CCc1cc(C(=O)NC2c3ccc(Cl)cc3Oc3cccc(Cl)c32)c(=O)[nH]c1C(F)(F)F (stereo not drawn) [Compound 169, N-(1,6-dichloro-9H-xanthen-9-yl)-5-ethyl-2-oxo-6-(trifluoromethyl)-1,2-dihydropyridine-3-carboxamide] | 780

Now those with a lower IC50, led by results:

IC50 [nM] | Structure (SMILES)
510 | C=Cc1ccc2c(c1)Oc1cccc(C=C)c1C2NC(=O)c1ccc(C(F)(F)F)[nH]c1=O (stereo not drawn) [Compound 139, N-(1,6-divinyl-9H-xanthen-9-yl)-2-oxo-6-(trifluoromethyl)-1,2-dihydropyridine-3-carboxamide]
90 | CCc1ccc2c(c1)Oc1cc(CC)ccc1C2NC(=O)c1ccc(C(F)(F)F)[nH]c1=O [Compound 143, N-(3,6-diethyl-9H-xanthen-9-yl)-2-oxo-6-(trifluoromethyl)-1,2-dihydropyridine-3-carboxamide]
310 | O=C(NC1c2ccc(CC(F)(F)F)cc2Oc2cc(CC(F)(F)F)ccc21)c1ccc(C(F)(F)F)[nH]c1=O [Compound 144, N-(3,6-bis(2,2,2-trifluoroethyl)-9H-xanthen-9-yl)-2-oxo-6-(trifluoromethyl)-1,2-dihydropyridine-3-carboxamide]
210 | O=C(NC1c2ccc(C3CC3)cc2Oc2cc(C3CC3)ccc21)c1ccc(C(F)(F)F)[nH]c1=O [Compound 145, N-(3,6-dicyclopropyl-9H-xanthen-9-yl)-2-oxo-6-(trifluoromethyl)-1,2-dihydropyridine-3-carboxamide]
400 | O=C(NC1c2ccccc2Oc2ccc(F)cc21)c1ccc(C(F)(F)F)[nH]c1=O (stereo not drawn) [Compound 150, N-(2-fluoro-9H-xanthen-9-yl)-2-oxo-6-(trifluoromethyl)-1,2-dihydropyridine-3-carboxamide]
290 | O=C(NC1c2ccccc2Oc2cc(C3CCC3)ccc21)c1ccc(C(F)(F)F)[nH]c1=O (stereo not drawn) [Compound 151, N-(3-cyclobutyl-9H-xanthen-9-yl)-2-oxo-6-(trifluoromethyl)-1,2-dihydropyridine-3-carboxamide]
460 | C=Cc1ccc2c(c1)C(NC(=O)c1ccc(C(F)(F)F)[nH]c1=O)c1ccccc1O2 (stereo not drawn) [Compound 155, 2-oxo-6-(trifluoromethyl)-N-(2-vinyl-9H-xanthen-9-yl)-1,2-dihydropyridine-3-carboxamide]
260 | O=C(NC1c2ccccc2Oc2cccc(F)c21)c1ccc(C(F)(F)F)[nH]c1=O (stereo not drawn) [Compound 156, N-(1-fluoro-9H-xanthen-9-yl)-2-oxo-6-(trifluoromethyl)-1,2-dihydropyridine-3-carboxamide]
360 | Cc1ccc2c(c1)C(NC(=O)c1ccc(C(F)(F)F)[nH]c1=O)c1cc(C)ccc1O2 [Compound 158, N-(2,7-dimethyl-9H-xanthen-9-yl)-2-oxo-6-(trifluoromethyl)-1,2-dihydropyridine-3-carboxamide]
180 | CCc1ccc2c(c1)C(NC(=O)c1ccc(C(F)(F)F)[nH]c1=O)c1ccccc1O2 (stereo not drawn) [Compound 160, N-(2-ethyl-9H-xanthen-9-yl)-2-oxo-6-(trifluoromethyl)-1,2-dihydropyridine-3-carboxamide]
80 | CCc1ccc2c(c1)Oc1ccccc1C2NC(=O)c1ccc(C(F)(F)F)[nH]c1=O (stereo not drawn) [Compound 162, N-(3-ethyl-9H-xanthen-9-yl)-2-oxo-6-(trifluoromethyl)-1,2-dihydropyridine-3-carboxamide]
110 | Cc1cc(C(=O)NC2c3ccc(Cl)cc3Oc3cc(Cl)ccc32)c(=O)[nH]c1C(F)(F)F [Compound 165, N-(3,6-dichloro-9H-xanthen-9-yl)-5-methyl-2-oxo-6-(trifluoromethyl)-1,2-dihydropyridine-3-carboxamide]
60 | Cc1ccc2c(c1)Oc1cc(C)ccc1C2NC(=O)c1cc(C)c(C(F)(F)F)[nH]c1=O [Compound 166, N-(3,6-dimethyl-9H-xanthen-9-yl)-5-methyl-2-oxo-6-(trifluoromethyl)-1,2-dihydropyridine-3-carboxamide]
330 | C=Cc1cc(C(=O)NC2c3ccc(C)cc3Oc3cccc(C)c32)c(=O)[nH]c1C(F)(F)F (stereo not drawn) [Compound 168, N-(1,6-dimethyl-9H-xanthen-9-yl)-2-oxo-6-(trifluoromethyl)-5-vinyl-1,2-dihydropyridine-3-carboxamide]
350 | C=Cc1cc(C(=O)NC2c3ccc(Cl)cc3Oc3cccc(Cl)c32)c(=O)[nH]c1C(F)(F)F (stereo not drawn) [Compound 170, N-(1,6-dichloro-9H-xanthen-9-yl)-2-oxo-6-(trifluoromethyl)-5-vinyl-1,2-dihydropyridine-3-carboxamide]
100 | C=Cc1cc(C(=O)NC2c3ccc(Cl)cc3Oc3cc(Cl)ccc32)c(=O)[nH]c1C(F)(F)F [Compound 171, N-(3,6-dichloro-9H-xanthen-9-yl)-2-oxo-6-(trifluoromethyl)-5-vinyl-1,2-dihydropyridine-3-carboxamide]
140 | CCc1cc(C(=O)NC2c3ccc(Cl)cc3Oc3cc(Cl)ccc32)c(=O)[nH]c1C(F)(F)F [Compound 172, N-(3,6-dichloro-9H-xanthen-9-yl)-5-ethyl-2-oxo-6-(trifluoromethyl)-1,2-dihydropyridine-3-carboxamide]
30 | C=CCc1cc(C(=O)NC2c3ccc(Cl)cc3Oc3cc(Cl)ccc32)c(=O)[nH]c1C(F)(F)F [Compound 173, 5-allyl-N-(3,6-dichloro-9H-xanthen-9-yl)-2-oxo-6-(trifluoromethyl)-1,2-dihydropyridine-3-carboxamide]
240 | C=CCc1cc(C(=O)NC2c3ccc(Cl)cc3Oc3cccc(Cl)c32)c(=O)[nH]c1C(F)(F)F (stereo not drawn) [Compound 174, 5-allyl-N-(1,6-dichloro-9H-xanthen-9-yl)-2-oxo-6-(trifluoromethyl)-1,2-dihydropyridine-3-carboxamide]
280 | Cc1ccc2c(c1)Oc1cccc(C)c1C2NC(=O)c1cc(-c2ccccc2)c(C(F)(F)F)[nH]c1=O (stereo not drawn) [Compound 175, N-(1,6-dimethyl-9H-xanthen-9-yl)-2-oxo-5-phenyl-6-(trifluoromethyl)-1,2-dihydropyridine-3-carboxamide]
400 | CCCc1cc(C(=O)NC2c3ccc(Cl)cc3Oc3cccc(Cl)c32)c(=O)[nH]c1C(F)(F)F (stereo not drawn) [Compound 179, N-(1,6-dichloro-9H-xanthen-9-yl)-2-oxo-5-propyl-6-(trifluoromethyl)-1,2-dihydropyridine-3-carboxamide]
